# Data: patent US9975885B2, “Broad-spectrum non-covalent coronavirus protease inhibitors” (priority 2016, dated 2018)
# Marks after values point to notes of the source that are not given here.
# Key:
# [1] = tested on: Ten CoV 3CL^pro's (FIPV-, PEDV-, NL63-, HKU1-, OC43-, SARS-, HKU4-, HKU5-, HKU9-, IBV-3CL^pro); format: biochemical, coronaviruses (α-, β-, γ-CoV)
# [2] = target: HKU5-3CL^pro (Bat coronavirus HKU5 (BtCoV) (BtCoV/HKU5/2004), UniProt P0C6W4); format: biochemical
# [3] = target: HKU1-3CL^pro (Human coronavirus HKU1 (isolate N1) (HCoV-HKU1), UniProt P0C6X2); test: biochemical
# [4] = target: HKU4-3CL^pro (Bat coronavirus HKU4 (BtCoV) (BtCoV/HKU4/2004), UniProt P0C6W3); format: biochemical
# [5] = target: SARS-3CL^pro (Severe acute respiratory syndrome coronavirus (SARS-CoV), UniProt P0C6X7); format: biochemical
# [6] = target: NL63-3CL^pro (Human coronavirus NL63 (HCoV-NL63), UniProt P0C6X5); test: biochemical
# [7] = target: OC43-3CL^pro (Human coronavirus OC43 (HCoV-OC43), UniProt P0C6X6); format: biochemical
# [8] = target: FIPV-3CL^pro (Feline coronavirus (strain FIPV WSU-79/1146) (FCoV), UniProt Q98VG9); test: biochemical
# [9] = target: PEDV-3CL^pro (Porcine epidemic diarrhea virus (strain CV777) (PEDV), UniProt P0C6Y4); test: biochemical
# Sequence of PEDV-3CL^pro (P0C6Y4 2998-3299 limits assumed): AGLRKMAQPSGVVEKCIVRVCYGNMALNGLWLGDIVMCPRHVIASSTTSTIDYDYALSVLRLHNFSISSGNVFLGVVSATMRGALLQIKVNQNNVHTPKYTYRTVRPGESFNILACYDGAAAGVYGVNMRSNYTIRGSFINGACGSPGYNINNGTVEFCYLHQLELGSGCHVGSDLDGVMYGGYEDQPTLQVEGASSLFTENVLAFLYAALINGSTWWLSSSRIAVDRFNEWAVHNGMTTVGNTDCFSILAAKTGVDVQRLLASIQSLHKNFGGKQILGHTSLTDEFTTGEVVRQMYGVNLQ
# Sequence of HKU4-3CL^pro (P0C6W3 3292-3597 limits assumed): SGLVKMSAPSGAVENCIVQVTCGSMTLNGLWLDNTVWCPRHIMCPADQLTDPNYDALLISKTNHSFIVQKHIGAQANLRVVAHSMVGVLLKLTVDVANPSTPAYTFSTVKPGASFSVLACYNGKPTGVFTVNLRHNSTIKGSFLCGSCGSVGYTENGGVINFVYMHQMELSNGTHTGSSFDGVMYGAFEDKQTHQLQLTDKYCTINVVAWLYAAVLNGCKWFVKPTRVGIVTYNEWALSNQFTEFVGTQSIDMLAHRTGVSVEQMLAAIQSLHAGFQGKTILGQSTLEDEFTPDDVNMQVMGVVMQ
# Sequence of HKU1-3CL^pro (P0C6X2 3335-3637 limits assumed): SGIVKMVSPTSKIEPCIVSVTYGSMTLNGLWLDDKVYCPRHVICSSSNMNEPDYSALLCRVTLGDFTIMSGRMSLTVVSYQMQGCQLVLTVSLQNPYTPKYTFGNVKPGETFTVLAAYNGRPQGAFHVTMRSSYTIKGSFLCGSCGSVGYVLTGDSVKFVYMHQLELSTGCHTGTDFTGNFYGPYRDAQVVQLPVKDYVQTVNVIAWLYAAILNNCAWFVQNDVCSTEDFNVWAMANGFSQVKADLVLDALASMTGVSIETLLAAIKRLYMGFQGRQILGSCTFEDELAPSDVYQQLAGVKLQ
# Sequence of HKU5-3CL^pro (P0C6W4 3339-3644 limits assumed): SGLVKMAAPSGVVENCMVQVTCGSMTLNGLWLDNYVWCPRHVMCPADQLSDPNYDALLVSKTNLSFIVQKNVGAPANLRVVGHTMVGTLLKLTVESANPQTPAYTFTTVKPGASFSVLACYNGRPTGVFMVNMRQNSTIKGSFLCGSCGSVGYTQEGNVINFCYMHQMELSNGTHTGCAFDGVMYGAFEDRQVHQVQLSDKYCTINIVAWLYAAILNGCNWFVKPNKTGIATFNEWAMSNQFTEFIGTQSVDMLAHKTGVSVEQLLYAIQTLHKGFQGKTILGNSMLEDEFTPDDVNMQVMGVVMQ
# Sequence of NL63-3CL^pro (P0C6X5 2940-3242 limits assumed): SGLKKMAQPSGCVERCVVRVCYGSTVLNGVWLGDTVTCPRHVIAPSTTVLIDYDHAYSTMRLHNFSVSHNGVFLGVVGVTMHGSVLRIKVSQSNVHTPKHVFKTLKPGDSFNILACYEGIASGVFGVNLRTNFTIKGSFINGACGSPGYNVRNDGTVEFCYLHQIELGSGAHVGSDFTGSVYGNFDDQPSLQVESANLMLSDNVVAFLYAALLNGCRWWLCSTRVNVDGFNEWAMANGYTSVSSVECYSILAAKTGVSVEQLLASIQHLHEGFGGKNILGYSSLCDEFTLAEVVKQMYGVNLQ
# Sequence of OC43-3CL^pro (P0C6X6 3247-3549 limits assumed): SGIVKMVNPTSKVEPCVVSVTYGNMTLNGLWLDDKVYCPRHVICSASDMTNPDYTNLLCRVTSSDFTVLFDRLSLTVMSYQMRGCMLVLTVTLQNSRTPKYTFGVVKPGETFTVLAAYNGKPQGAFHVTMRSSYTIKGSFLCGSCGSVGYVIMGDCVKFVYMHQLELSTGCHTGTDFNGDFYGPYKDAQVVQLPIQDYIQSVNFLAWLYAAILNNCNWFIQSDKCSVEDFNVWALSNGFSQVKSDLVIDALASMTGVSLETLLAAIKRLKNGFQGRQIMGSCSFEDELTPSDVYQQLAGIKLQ
# Sequence of FIPV-3CL^pro (Q98VG9 2904-3205 limits assumed): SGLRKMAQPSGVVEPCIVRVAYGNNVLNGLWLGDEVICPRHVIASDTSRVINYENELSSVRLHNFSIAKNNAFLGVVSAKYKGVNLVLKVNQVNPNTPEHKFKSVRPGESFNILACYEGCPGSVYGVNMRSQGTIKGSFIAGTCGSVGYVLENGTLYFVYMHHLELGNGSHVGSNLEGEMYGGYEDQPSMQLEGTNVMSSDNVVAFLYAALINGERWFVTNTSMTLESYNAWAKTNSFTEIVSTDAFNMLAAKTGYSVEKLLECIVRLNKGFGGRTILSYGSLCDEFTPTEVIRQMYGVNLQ
SMILES,Gini Coefficient [1],Score (performance metric score) [1],IC50 [2] [µM],IC50 [3] [µM],IC50 [4] [µM],IC50 [5] [µM],IC50 [6] [µM],number of 3CL^pro's inhibited [1],IC50 [7] [µM],IC50 [8] [µM],IC50 [9] [µM],inhibition of HKU1-3CL^pro [3]
"COc1ccc(C(C(=O)NCc2ccccc2)N(C(=O)Cn2nnc3ccccc32)c2ccc(NC(=O)C(C)C)cc2)cc1 (stereo not shown) [Compound 13, N-(4-(2-(1H-benzo[d][1,2,3]triazol-1-yl)-N-(2-(benzylamino)-1-(4-methoxyphenyl)-2-oxoethyl)acetamido)phenyl)isobutyramide]",0.43,6.4,1.3 ± 0.2,2.5 ± 0.4,,,,,,,,
"CC(C)(C)OC(=O)CNC(=O)C(c1ccsc1)N(C(=O)Cn1nnc2ccccc21)c1ccc(NC(=O)C2CC2)cc1 (stereo not shown) [Compound 64, tert-butyl (2-(2-(1H-benzo[d][1,2,3]triazol-1-yl)-N-(4-(cyclopropanecarboxamido)phenyl)acetamido)-2-(thiophen-3-yl)acetyl)glycinate]",,,2 ± 0.2,6.5 ± 0.9,2.1 ± 0.2,6.3 ± 0.8,8.7 ± 0.8,eight of the ten,4.5 ± 0.3,11.7 ± 1.2,8.7 ± 1.4,
"CC(C)C(=O)Nc1ccc(N(C(=O)Cn2cnc3ccccc32)C(C(=O)NCc2ccccc2)c2cccc(F)c2)cc1 (stereo not shown) [Compound 19, N-(4-(2-(1H-benzo[d]imidazol-1-yl)-N-(2-(benzylamino)-1-(3-fluorophenyl)-2-oxoethyl)acetamido)phenyl)isobutyramide]",0.31,6.8,2.9 ± 0.3,3.7 ± 0.6,2.5 ± 0.2,,,,3.9 ± 0.4,,,
"CC(C)C(=O)Nc1ccc(N(C(=O)Cn2nnc3ccccc32)C(C(=O)NCc2ccccc2)c2cccnc2)cc1 (stereo not shown) [Compound 15, N-(4-(2-(1H-benzo[d][1,2,3]triazol-1-yl)-N-(2-(benzylamino)-2-oxo-1-(pyridin-3-yl)ethyl)acetamido)phenyl)isobutyramide]",0.48,9.7,9.6 ± 1.2,,4 ± 0.4,10.9 ± 1.9,,,,,,
"O=C(Nc1ccc(N(C(=O)Cn2nnc3ccccc32)C(C(=O)NC2CCCC2)c2ccsc2)cc1)C1CC1 (stereo not shown) [Compound 33, N-(4-(2-(1H-benzo[d][1,2,3]triazol-1-yl)-N-(2-(cyclopentylamino)-2-oxo-1-(thiophen-3-yl)ethyl)acetamido)phenyl)cyclopropanecarboxamide]",0.32,5.7*,0.6 ± 0.1,,0.5 ± 0.05,4.2 ± 0.6,3.7 ± 0.6,,7.3 ± 0.8,,,not tolerated
"CC(C)C(=O)Nc1ccc(N(C(=O)Cn2nnc3ccccc32)C(C(=O)NCc2ccccc2)c2ccc(OCCCN(C)C)cc2)cc1 (stereo not shown) [Compound 54, N-(4-(2-(1H-benzo[d][1,2,3]triazol-1-yl)-N-(2-(benzylamino)-1-(4-(3-(dimethylamino)propoxy)phenyl)-2-oxoethyl)acetamido)phenyl)isobutyramide]",0.59,19.8,,20 ± 2.9,,27.3 ± 4.6,,,,,,
"CC(C)(C)NC(=O)C(c1cccnc1)N(C(=O)c1c[nH]cn1)c1ccc(C2CC2)cc1 (stereo not shown) [Compound 39, N-(2-(tert-butylamino)-2-oxo-1-(pyridin-3-yl)ethyl)-N-(4-cyclopropylphenyl)-1H-imidazole-4-carboxamide]",0.19,7.6,15.7 ± 2,2 ± 1.1,16.6 ± 1.7,12.7 ± 2.5,,five out of ten,,,17.6 ± 2.6,
"O=C(Nc1ccc(N(C(=O)Cn2nnc3ccccc32)C(C(=O)NCc2ccccc2)c2ccsc2)cc1)C1CC1 (stereo not shown) [Compound 37, N-(4-(2-(1H-benzo[d][1,2,3]triazol-1-yl)-N-(2-(benzylamino)-2-oxo-1-(thiophen-3-yl)ethyl)acetamido)phenyl)cyclopropanecarboxamide]",,5.3*,0.8 ± 0.1,,0.6 ± 0.04,2 ± 0.2,3 ± 0.3,,2.2 ± 0.2,,,
"O=C(Nc1ccc(N(C(=O)Cn2nnc3ccccc32)C(C(=O)NC2CC2)c2ccsc2)cc1)C1CC1 (stereo not shown) [Compound 32, N-(4-(2-(1H-benzo[d][1,2,3]triazol-1-yl)-N-(2-(cyclopropylamino)-2-oxo-1-(thiophen-3-yl)ethyl)acetamido)phenyl)cyclopropanecarboxamide]",,5.0*,0.9 ± 0.1,9.8 ± 1.8,0.8 ± 0.1,8.2 ± 1.5,14.8 ± 1.2,six,2.8 ± 0.2,,,
